Assay results: US8653298B2, “Biphenyl acetate, preparation and uses thereof” (Shijiazhuang Yiling Pharmaceutical Co., Ltd., priority 2006, dated 2014)
“Also recorded” adds a separate entry of the source. Structures can show the parent of a compound that is named as a salt.

Experiments:
female Kunming mouse = assay: analgesia, mice heating plate method; type: in vivo; settings: for pain record on hot plate (55±0.5° C.): 240 mg/kg
Experimental: Pick the female Kunming mouse, each having the weight between 20 to 22 grams. At first, test their sensitive towards pain. Put the mouse on the hot plate with the temperature of 55±0.5° C., and calculate how much pain does the mouse has by determining how many times they lick their back leg. Eliminate the mice seem to like to jump and the mice has no respond for 30 seconds. Pick a total of 60 mice having sensitive to pain and divide them into 5 groups randomly. […] The dosage of biphenyl acetic ammonia butantriol salt is divided into low, medium, and high dosage, correspondingly to 4, 12, 36 mg/kg, and normal dosage ⅓, 1, 3 respectively. And there is a positive contrast group. […] On the other hand, the saline is injected into the vein in the contrast group. Use epilation to remove the hair of the back leg of the mouse. Record the painful of every mouse before giving drug, and record the painful after giving drug 1 hour. After the mouse licks its foot, remove the hot plate immediately. Do the same record again at the second and third hour after giving drug. Do the t inspect, and judge its effects on easing pain.

NIH mice [1] = assay: twist reaction caused by glacial acetic acid; settings: 3-48 mg/kg
Experimental: After testing, the 110 NIH mice are divided into eleven groups randomly, which means each group has 10 mice, and each of the mice has a weight between 15 and 17 grams. The numbers and dosage of the biphenyl acetic ammonia butantriol slat are 1, 2, 3, 4, 5 and 3, 6, 12, 24, 48 mg/kg respectively. The numbers and dosage of flurbiprofen axetil are 1, 2, 3, 4, 5, and 3, 6, 12, 24, 48 respectively also. The medicine and weight ratio is 0.1 ml medicine/10 g weight. Meanwhile, we give the same quantity of saline solution to the contrast group. After 30 minutes, the mixture solution is injected into the vein according to its weight ratio 0.1 ml liquid/10 gram weight for HAc painful.

[2] = system: 2% red blood cell's suspending liquid; assay: hemolytic testing outside the body (visual); type: cell-based, rabbit; settings: low concentration 0.63 mg/ml
Experimental: Take 0.5 ml the biphenyl acetic ammonia butantriol salt solution and dilute it with 0.9 % NaCl solution (0.9 g/100 ml) to 6.25 ml.
Take 2 ml the biphenyl acetic ammonia butantriol salt solution and dilute it with 0.9 % NACL (0.9 g/100 ml) solution to 6.0 ml.
Take few milliliters of rabbit blood into a triangular flask and shake it for 10 minutes. Remove the fiber egg white, and get non-fiber blood. Separate the blood solution into few centrifuge tubes. Add ten times of 0.9% NaCl solution, well mixing, and centrifuge (1500 turns/minutes, 15 minutes) to remove the supernatant. Use 0.9% NaCl solution to wash the precipitation red blood two or three times until the supernatant is not red anymore. Use the red blood to mix the 0.9% NaCl solution to make 2% suspending liquid for test use.
Take the same size of opening of 7 clean test tubes and number them. Add the 0.9% NaCl solution, the injection water, medicine, and the 2% suspending liquid followed by Table 9. After well mixing, put them in the temperature chamber at 37° C. Inspect them every 15 minutes. After 1 hour, inspect them every one hour for 3 hours.
If testing solution presents clearly red, no cellular residual under the tube, and few cellular residual, it can determines that haemolysis happens. If red cells all sink, and supernatant fluid presents no color, it can present that haemolysis doesn't happen. […]

Kunming mouse = assay: swelling of the mouse ear caused by dimethyl benzene; settings: 3-48 mg/kg
Description: Total numbers of 110 Kunming mice are used, male, 15-17 g, medical inspection for 3 days.
After testing, the mice are divided into eleven groups randomly and each group contains 10 mice. The numbers and dosage of the biphenyl acetic ammonia butantriol slat are 1, 2, 3, 4, 5 and 3, 6, 12, 24, 48, respectively. The numbers and dosage of flurbiprofen axetil are 1, 2, 3, 4, 5, and 3, 6, 12, 24, 48 respectively. Use the dimethybenzene to make the mouse ear swelling, and use the mouse left ear as the contrast group. After 30 minutes, the mixing liquid is injected into the vein according to its weight ratio 0.1 ml liquid/10 gram weight. Use a punch, having the diameter of 8 mm, to punch the same hole in two different ears. Weight it by very high quality scale. Finally, the swelling ratio is: the weight of right ear plus the weight of left ear.

[3] = stable test of the injection (influence, acceleration, long term); type: physicochemical
Description: The purpose is to investigate the regular change of this product which has the influence of temperature, humidity, and light intensity, and offer producing, packaging, and transporting condition for this medicine. At the same time, the effective date is established by passing this testing. According to the Chinese pharmacopia appendix XI X C, second edition, 2005(the rule of medicine stability testing direction) and “The important stability item-list of bulk drug and pharmaceutical preparation” which is in “The researching directive rule of chemical medicine and therapeutic biological products” determines the important item-list, which includes gender character, PH value, relative materials, asepsis, thermal source, assay, and so on. The testing result is below: […] In other words, the quality of the product is very stable. […] In other words, the quality of the product is very stable. […] In other words, the quality of the product is very stable.

in vivo = settings: both, NIH, mouse, in vivo
Description: (§1) A total amount of 40 NIH mice, 19-21 gram, (half of the mice are male and half of the mice are female), it is divided into two groups: medicine group and the contrast group. […] The contrast is given by the […] liquid. Investigation and record the poison effect on the mice and the amount of mice death.

NIH mice [4] = assay: in vivo
Description: as §1

solubility testing = type: physicochemical; settings: for Conclusion (solubility): 25±2° C.
Experimental: According to Chinese medicine book in 2005 edition, the preparation of biphenyl acetic ammonia butantriol salt is made by different solvent. […] At first, mill the biphenyl acetic ammonia butantriol salt into flour and weight it, and add solvent into the biphenyl acetic ammonia butantriol salt. Second, at 25±2° C., wave the mixer solution every 5 minutes for 30 seconds, and inspect the dissolve situation. Repeat three times and the result is illustrated in Table 1.

NIH mice [5] = assay: test of stomach channel, oral administration; settings: 212 mg/kg oral, fasted 24 hours, stomach dissected after 48 hours
Experimental: NIH mice are divided into two groups randomly. […] Dissect stomach after 48 hours. Use 10% methylene oxide. Cut the stomach along the curve of stomach, and calculate the percentage of an ulcer canker.

[6] = both, NIH, mouse, in vivo, 14 days
[7] = solvent Acetone, 8.9 g in 150 ml
[8] = solvent Acetonitrile, 9.1 g in 150 ml
[9] = solvent Alcohol, 14.3 g in 10 ml
[10] = solvent Formamide, 0.2137 g in 6 ml
[11] = solvent Methanol, 0.1135 g in 3 ml

CC(=O)Oc1ccccc1C(=O)O [Lysine Acetyl-salicylate]
pain record on hot plate (55±0.5° C.) (female Kunming mouse; 1 hour): 31.08 ± 4.26
pain record on hot plate (55±0.5° C.) (female Kunming mouse; 2 hours): 30.35 ± 3.29
pain record on hot plate (55±0.5° C.) (female Kunming mouse; 3 hours): 28.16 ± 2.97

O=C(O)Cc1ccc(-c2ccccc2)cc1 [biphenyl acetic ammonia butantriol salt]
time which mouse is standing on the hot plate compared to the contrast group (female Kunming mouse; first, second and third hour after giving drugs): significantly extends
effect towards the mouse twisted caused by glacial acetic acid compared with flurbiprofen axetil injection (NIH mice [1]): no significantly difference
blood absorbing reaction within 3 hours [2]: no blood absorbing reaction
effect towards the swelling ear caused by dimethybenzene compared with flurbiprofen axetil (Kunming mouse): no significantly difference
long term test: change of the product ([3]; 25° C., relative humidity 25%, 3 months): no significantly change
acceleration test: change of the product ([3]; 40±2° C., relative humidity 75±5%, 3 months): no significantly change
influence test: change of the product ([3]; 60° C., relative humidity 92.5±5%, light intensity 4500±500 lx, 10 days): no significantly change
LD50 at 14 days (in vivo; LD50): > 940 mg/kg
LD50 at 14 days (in vivo; LD50 of the salt stated as biphenyl phenylacetic acid): 589 mg/kg
mouse death (NIH mice [4]; 940 mg/kg total for one day, 14 days after injection): no mouse went death
maximum enduring quantity (NIH mice [4]; [6]): over 940 mg/kg
tolerance value (NIH mice [4]; [6]): 940 mg/kg
poison effect on the mice after injection (NIH mice [4]; mouse, in vivo): barely to move
The dissolving condition (solubility testing; [7]): Completely
Conclusion (solubility) (solubility testing; [7]): Undissolvable
The dissolving condition (solubility testing; [8]): Completely
Conclusion (solubility) (solubility testing; [8]): Undissolvable
The dissolving condition (solubility testing; [9]): Completely
Conclusion (solubility) (solubility testing; [9]): just a few dissolve; also recorded: Slightly
The dissolving condition (solubility testing; [10]): Completely
Conclusion (solubility) (solubility testing; [10]): Dissolved
The dissolving condition (solubility testing; [11]): Completely
Conclusion (solubility) (solubility testing; [11]): Dissolved
The dissolving condition (solubility testing; solvent Water, 14.1 g in 10 ml): Completely
Conclusion (solubility) (solubility testing; solvent Water, 14.1 g in 10 ml): just a few dissolve; also recorded: Slightly

CC(=O)O.c1ccc(-c2ccccc2)cc1 [Biphenyl acetate]
Number of ulcer animals/Sum of total animals (NIH mice [5]): 13/15
